Key:
[1] = biological target: T1, adrenergic receptor α1A (Homo sapiens, UniProt P35348); experiment: SafetyScreen44 panel (Eurofins), single concentration […]; details: read-out: % inhibition at 10 μM
T1 construct: gene ADRA1A
T1 sequence (P35348 1-466): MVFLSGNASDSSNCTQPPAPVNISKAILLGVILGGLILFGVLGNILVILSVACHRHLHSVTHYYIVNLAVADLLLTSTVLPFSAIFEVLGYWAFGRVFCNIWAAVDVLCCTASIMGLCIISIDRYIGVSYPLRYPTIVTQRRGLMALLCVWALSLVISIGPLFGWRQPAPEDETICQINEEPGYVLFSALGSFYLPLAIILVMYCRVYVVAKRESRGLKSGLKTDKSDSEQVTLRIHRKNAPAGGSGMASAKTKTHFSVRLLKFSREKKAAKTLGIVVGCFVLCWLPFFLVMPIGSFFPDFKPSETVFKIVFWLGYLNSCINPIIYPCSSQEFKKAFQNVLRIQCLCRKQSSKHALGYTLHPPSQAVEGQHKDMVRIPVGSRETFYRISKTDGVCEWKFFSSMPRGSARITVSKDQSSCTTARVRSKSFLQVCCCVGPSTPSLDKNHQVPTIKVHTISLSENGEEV

[2] = biological target: T2, µ-opioid receptor (Rattus norvegicus, UniProt P33535); experiment: [3H]DAMGO radioligand displacement in rat cortex homogenates; assay type: binding
T2 construct: gene Oprm1; rat cortex homogenates

[3] = biological target: T3, N neuronal α7 (h) (Homo sapiens, UniProt P36544); experiment: biochemical; set-up: Eurofins SafetyScreen44 radioligand displacement, inhibition of control specific binding; details: read-out: % Inhibition of Control Specific Binding, Mean
T3 construct: gene CHRNA7

[4] = biological target: T4, 5-HT1B (h) (Homo sapiens, UniProt P28222); experiment: biochemical; set-up: Eurofins SafetyScreen44 radioligand displacement, inhibition of control specific binding; details: read-out: % Inhibition of Control Specific Binding, Mean
T4 construct: gene HTR1B

[5] = biological target: T5, 5-HT1A(h) (Homo sapiens, UniProt P08908); experiment: biochemical; set-up: Eurofins SafetyScreen44 radioligand displacement, inhibition of control specific binding; details: read-out: % Inhibition of Control Specific Binding, Mean
T5 construct: gene HTR1A

[6] = biological target: T6, D2L(h) (Homo sapiens, UniProt P14416); experiment: biochemical; set-up: Eurofins SafetyScreen44 radioligand displacement, inhibition of control specific binding; details: read-out: % Inhibition of Control Specific Binding, Mean
T6 construct: gene DRD2; long isoform D2L

[7] = biological target: T7, CB2(h) (Homo sapiens, UniProt P34972); experiment: biochemical; set-up: Eurofins SafetyScreen44 radioligand displacement, inhibition of control specific binding; details: read-out: % Inhibition of Control Specific Binding, Mean
T7 construct: gene CNR2

[8] = biological target: T8, H1(h) (Homo sapiens, UniProt P35367); experiment: biochemical; set-up: Eurofins SafetyScreen44 radioligand displacement, inhibition of control specific binding; details: read-out: % Inhibition of Control Specific Binding, Mean
T8 construct: gene HRH1

[9] = biological target: T9, 5-HT5a(h) (Homo sapiens, UniProt P47898); experiment: biochemical; set-up: Eurofins SafetyScreen44 radioligand displacement, inhibition of control specific binding; details: read-out: % Inhibition of Control Specific Binding, Mean
T9 construct: gene HTR5A

[10] = biological target: T10, A2A(h) (Homo sapiens, UniProt P29274); experiment: biochemical; set-up: Eurofins SafetyScreen44 radioligand displacement, inhibition of control specific binding; details: read-out: % Inhibition of Control Specific Binding, Mean
T10 construct: gene ADORA2A

[11] = biological target: T11, 5-HT transporter (h) (Homo sapiens, UniProt P31645); experiment: biochemical; set-up: Eurofins SafetyScreen44 radioligand displacement, inhibition of control specific binding; details: read-out: % Inhibition of Control Specific Binding, Mean
T11 construct: gene SLC6A4

[12] = biological target: T12, β2(h) (Homo sapiens, UniProt P07550); experiment: biochemical; set-up: Eurofins SafetyScreen44 radioligand displacement, inhibition of control specific binding; details: read-out: % Inhibition of Control Specific Binding, Mean
T12 construct: gene ADRB2

[13] = biological target: T13, H2(h) (Homo sapiens, UniProt P25021); experiment: biochemical; set-up: Eurofins SafetyScreen44 radioligand displacement, inhibition of control specific binding; details: read-out: % Inhibition of Control Specific Binding, Mean
T13 construct: gene HRH2

[14] = biological target: T14, D1(h) (Homo sapiens, UniProt P21728); experiment: biochemical; set-up: Eurofins SafetyScreen44 radioligand displacement, inhibition of control specific binding; details: read-out: % Inhibition of Control Specific Binding, Mean
T14 construct: gene DRD1

[15] = biological target: T15, M2 (h) (Homo sapiens, UniProt P08172); experiment: biochemical; set-up: Eurofins SafetyScreen44 radioligand displacement, inhibition of control specific binding; details: read-out: % Inhibition of Control Specific Binding, Mean
T15 construct: gene CHRM2

[16] = biological target: T16, dopamine transporter(h) (Homo sapiens, UniProt Q01959); experiment: biochemical; set-up: Eurofins SafetyScreen44 radioligand displacement, inhibition of control specific binding; details: read-out: % Inhibition of Control Specific Binding, Mean
T16 construct: gene SLC6A3

[17] = biological target: T17, D3(h) (Homo sapiens, UniProt P35462); experiment: biochemical; set-up: Eurofins SafetyScreen44 radioligand displacement, inhibition of control specific binding; details: read-out: % Inhibition of Control Specific Binding, Mean
T17 construct: gene DRD3

[18] = biological target: T18, ETA(h) (Homo sapiens, UniProt P25101); experiment: biochemical; set-up: Eurofins SafetyScreen44 radioligand displacement, inhibition of control specific binding; details: read-out: % Inhibition of Control Specific Binding, Mean
T18 construct: gene EDNRA

[19] = biological target: T19, COX1(h) (Homo sapiens, UniProt P23219); experiment: biochemical; set-up: Eurofins SafetyScreen44 enzyme assays, inhibition of control specific activity; details: read-out: % Inhibition of Control Values, Mean
T19 construct: gene PTGS1

[20] = biological target: PDE3A (h) (Homo sapiens, UniProt Q14432); experiment: biochemical; set-up: Eurofins SafetyScreen44 enzyme assays, inhibition of control specific activity; details: read-out: % Inhibition of Control Values, Mean
[21] = biological target: Lck kinase (h) (Homo sapiens, UniProt P06239); experiment: biochemical; set-up: Eurofins SafetyScreen44 enzyme assays, inhibition of control specific activity; details: read-out: % Inhibition of Control Values, Mean
[22] = biological target: T20, 5-HT1B (antagonist radioligand) (Rattus norvegicus, UniProt P28564); experiment: biochemical; details: read-out: % Inhibition of Control Specific Binding Mean
T20 construct: gene Htr1b

[23] = biological target: T21, 5-HT1D (agonist radioligand) (Rattus norvegicus, UniProt P28565); experiment: biochemical; details: read-out: % Inhibition of Control Specific Binding Mean
T21 construct: gene Htr1d

T15 sequence (P08172 whole entry): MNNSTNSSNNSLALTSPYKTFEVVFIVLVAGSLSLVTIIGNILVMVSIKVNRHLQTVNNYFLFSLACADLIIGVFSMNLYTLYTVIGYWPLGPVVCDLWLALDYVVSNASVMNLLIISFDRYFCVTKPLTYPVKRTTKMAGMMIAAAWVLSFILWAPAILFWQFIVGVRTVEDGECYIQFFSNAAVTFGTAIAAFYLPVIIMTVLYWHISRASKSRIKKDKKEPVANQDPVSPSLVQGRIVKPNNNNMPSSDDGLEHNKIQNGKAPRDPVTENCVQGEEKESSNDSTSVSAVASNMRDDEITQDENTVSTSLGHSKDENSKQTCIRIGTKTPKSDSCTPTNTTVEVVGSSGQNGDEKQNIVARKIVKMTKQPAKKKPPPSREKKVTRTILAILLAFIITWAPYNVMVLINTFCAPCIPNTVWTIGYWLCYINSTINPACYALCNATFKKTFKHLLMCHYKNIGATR
T8 sequence (P35367 whole entry): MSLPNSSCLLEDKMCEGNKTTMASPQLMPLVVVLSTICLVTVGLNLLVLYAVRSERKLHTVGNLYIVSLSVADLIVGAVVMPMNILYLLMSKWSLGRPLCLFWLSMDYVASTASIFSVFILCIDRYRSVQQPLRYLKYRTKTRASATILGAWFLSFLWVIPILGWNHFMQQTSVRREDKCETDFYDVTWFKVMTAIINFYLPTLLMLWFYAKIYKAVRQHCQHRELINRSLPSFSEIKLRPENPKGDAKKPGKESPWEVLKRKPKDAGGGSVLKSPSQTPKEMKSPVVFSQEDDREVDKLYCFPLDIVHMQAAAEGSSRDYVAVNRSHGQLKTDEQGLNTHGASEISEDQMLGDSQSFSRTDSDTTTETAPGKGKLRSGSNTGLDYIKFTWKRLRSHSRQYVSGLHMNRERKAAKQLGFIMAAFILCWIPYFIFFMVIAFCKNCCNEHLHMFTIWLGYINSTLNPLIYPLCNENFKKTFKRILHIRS
T11 sequence (P31645 whole entry): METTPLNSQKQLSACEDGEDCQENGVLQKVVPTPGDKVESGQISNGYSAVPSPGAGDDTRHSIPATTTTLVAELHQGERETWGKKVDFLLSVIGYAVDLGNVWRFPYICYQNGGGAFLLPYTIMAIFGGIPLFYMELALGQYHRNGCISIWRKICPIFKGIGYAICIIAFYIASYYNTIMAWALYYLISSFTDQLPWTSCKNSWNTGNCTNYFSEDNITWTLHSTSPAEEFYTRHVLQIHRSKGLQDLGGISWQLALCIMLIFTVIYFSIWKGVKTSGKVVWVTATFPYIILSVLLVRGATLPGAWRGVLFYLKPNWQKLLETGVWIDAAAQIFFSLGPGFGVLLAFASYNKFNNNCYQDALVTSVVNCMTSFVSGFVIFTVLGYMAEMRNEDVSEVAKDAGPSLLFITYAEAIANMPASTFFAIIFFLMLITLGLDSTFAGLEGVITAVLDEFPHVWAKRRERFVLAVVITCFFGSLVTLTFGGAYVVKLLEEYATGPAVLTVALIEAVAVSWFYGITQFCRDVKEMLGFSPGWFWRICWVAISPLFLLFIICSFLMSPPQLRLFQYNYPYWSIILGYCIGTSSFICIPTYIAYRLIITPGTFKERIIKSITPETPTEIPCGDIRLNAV
T6 sequence (P14416 whole entry, canonical isoform): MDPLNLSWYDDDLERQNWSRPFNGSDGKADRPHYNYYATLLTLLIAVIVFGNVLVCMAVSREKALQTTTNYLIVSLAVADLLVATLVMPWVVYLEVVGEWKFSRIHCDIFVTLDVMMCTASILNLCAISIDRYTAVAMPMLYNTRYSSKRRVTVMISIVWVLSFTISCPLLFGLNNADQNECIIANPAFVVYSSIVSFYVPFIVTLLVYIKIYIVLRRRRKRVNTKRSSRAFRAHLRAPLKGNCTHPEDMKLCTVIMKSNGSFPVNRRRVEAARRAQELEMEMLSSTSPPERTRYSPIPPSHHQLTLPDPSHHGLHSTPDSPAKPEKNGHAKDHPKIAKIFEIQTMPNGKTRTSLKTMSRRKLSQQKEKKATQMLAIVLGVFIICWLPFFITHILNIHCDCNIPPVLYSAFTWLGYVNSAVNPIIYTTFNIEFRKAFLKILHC
T4 sequence (P28222 whole entry): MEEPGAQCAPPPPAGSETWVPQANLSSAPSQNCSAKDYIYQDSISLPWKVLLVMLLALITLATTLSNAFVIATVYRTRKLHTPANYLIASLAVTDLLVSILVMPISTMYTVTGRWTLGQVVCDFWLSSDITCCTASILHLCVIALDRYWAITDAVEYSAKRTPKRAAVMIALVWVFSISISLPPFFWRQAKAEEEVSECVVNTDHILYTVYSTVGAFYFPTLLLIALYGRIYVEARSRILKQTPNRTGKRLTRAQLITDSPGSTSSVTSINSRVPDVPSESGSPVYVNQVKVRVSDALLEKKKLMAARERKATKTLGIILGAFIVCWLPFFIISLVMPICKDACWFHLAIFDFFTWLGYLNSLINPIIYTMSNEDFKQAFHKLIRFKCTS
T20 sequence (P28564 whole entry): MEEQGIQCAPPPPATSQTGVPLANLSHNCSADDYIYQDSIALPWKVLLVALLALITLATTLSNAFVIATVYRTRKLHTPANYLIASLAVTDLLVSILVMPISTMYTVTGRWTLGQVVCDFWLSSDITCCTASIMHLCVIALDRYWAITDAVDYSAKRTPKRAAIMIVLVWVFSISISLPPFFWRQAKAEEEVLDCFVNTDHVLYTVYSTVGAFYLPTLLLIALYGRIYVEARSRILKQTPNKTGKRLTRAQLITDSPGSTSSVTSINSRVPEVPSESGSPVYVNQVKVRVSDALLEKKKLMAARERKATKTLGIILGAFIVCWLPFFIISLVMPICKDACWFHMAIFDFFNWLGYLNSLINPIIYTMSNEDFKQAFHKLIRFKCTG
T19 sequence (P23219 whole entry): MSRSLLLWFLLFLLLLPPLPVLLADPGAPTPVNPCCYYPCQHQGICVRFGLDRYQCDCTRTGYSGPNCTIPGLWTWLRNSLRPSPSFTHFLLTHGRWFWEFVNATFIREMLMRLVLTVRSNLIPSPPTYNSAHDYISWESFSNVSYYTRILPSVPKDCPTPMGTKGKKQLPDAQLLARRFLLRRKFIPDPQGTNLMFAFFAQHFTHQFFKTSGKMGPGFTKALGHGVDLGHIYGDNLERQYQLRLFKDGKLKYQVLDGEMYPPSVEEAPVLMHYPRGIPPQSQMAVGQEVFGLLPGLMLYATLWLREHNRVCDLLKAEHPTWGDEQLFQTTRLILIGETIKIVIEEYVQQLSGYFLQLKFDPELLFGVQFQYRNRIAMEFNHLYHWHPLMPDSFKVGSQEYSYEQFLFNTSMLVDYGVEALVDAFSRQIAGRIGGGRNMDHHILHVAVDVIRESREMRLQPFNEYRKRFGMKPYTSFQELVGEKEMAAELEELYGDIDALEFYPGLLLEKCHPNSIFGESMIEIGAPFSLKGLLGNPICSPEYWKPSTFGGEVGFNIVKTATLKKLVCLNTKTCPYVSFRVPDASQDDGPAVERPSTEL
Lck kinase (h), sequence (P06239 whole entry): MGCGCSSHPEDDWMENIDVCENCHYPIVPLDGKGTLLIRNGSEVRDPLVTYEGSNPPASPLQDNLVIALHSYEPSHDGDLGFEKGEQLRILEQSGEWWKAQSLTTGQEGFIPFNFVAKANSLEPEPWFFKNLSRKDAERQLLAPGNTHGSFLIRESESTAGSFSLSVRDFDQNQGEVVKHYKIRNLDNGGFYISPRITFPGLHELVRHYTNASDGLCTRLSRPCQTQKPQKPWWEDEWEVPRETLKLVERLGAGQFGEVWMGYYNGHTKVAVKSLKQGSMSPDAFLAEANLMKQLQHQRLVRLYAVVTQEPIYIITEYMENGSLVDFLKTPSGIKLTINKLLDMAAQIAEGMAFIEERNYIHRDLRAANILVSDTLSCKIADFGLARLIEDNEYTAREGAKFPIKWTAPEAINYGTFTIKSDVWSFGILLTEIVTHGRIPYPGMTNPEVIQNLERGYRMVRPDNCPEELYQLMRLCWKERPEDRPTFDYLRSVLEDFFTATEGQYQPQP
T5 sequence (P08908 whole entry): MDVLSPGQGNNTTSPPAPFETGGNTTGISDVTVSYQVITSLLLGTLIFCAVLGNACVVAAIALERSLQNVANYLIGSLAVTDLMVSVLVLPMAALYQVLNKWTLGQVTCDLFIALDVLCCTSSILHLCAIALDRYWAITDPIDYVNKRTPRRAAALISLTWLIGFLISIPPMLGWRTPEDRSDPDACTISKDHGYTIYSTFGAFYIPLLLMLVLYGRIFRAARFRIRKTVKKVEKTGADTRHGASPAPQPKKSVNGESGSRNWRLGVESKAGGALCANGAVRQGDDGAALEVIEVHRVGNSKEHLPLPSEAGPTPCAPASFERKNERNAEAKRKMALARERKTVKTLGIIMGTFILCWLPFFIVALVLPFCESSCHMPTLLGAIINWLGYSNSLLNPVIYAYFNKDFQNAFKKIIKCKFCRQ
T10 sequence (P29274 whole entry): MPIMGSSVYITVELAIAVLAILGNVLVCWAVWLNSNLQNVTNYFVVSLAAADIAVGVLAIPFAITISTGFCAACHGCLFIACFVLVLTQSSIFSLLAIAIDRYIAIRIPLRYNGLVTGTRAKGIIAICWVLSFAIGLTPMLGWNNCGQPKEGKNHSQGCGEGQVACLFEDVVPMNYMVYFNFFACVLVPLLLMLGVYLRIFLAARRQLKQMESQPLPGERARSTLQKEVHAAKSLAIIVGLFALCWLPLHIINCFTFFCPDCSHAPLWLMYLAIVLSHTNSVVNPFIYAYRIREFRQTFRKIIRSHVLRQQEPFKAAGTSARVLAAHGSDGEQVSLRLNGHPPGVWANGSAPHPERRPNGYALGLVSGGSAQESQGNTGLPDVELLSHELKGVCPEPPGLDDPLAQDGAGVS

## COCCN(CC1CCCN(Cc2ccccc2)C1)S(=O)(=O)c1ccc2ccccc2c1 (racemic) [compound 4, (±)N-((1-benzylpiperidin-3-yl)methyl)-N-(2-methoxyethyl)naphthalene-2-sulfonamide]
[1]
  inhibition at 10 µM: 71.7%
[2]
  Ki: 1800 nM
[3]
  inhibition at 10 µM: 18.2%
[4]
  inhibition at 10 µM: 45%
[5]
  inhibition at 10 µM: 96.2%
[6]
  inhibition at 10 µM: 26.6%
[7]
  inhibition at 10 µM: 17.6%
[8]
  inhibition at 10 µM: 29%
[9]
  inhibition at 10 µM: 42.5%
[10]
  inhibition at 10 µM: 20.5%
[11]
  inhibition at 10 µM: 12.7%
[12]
  inhibition at 10 µM: 10.5%
[13]
  inhibition at 10 µM: 27%
[14]
  inhibition at 10 µM: 32.4%
[15]
  inhibition at 10 µM: 85.7%
[16]
  inhibition at 10 µM: 26%
[17]
  inhibition at 10 µM: 38.4%
[18]
  inhibition at 10 µM: -3.9%
[19]
  inhibition at 10 µM: 0.4%
[20]
  inhibition at 10 µM: 7%
[21]
  inhibition at 10 µM: 52.7%
[22]
  inhibition at 10 µM: -12.8%
[23]
  inhibition at 10 µM: 33%

From publication PMC8120209, “Longitudinal evaluation of a novel BChE PET tracer as an early in vivo biomarker in the brain of a mouse model for Alzheimer disease” (Theranostics, 2021)
